Our source for the Ki values is BindingDB's records for doi:10.1073/pnas.83.13.4918 (Merck Sharp & Dohme Research Laboratories, 1986).

Where a SMILES comes first, the peptide text is derived from it. [ ]: non-standard residue; d: D form. The star is where a group is joined. sY = N[C@@H](Cc1ccc(OS(=O)(=O)O)cc1)C(=O)O; Cbz = O=C(OCc1ccccc1)*

Test [1] concerns the target Gamma-aminobutyric acid receptor subunit alpha-1 (Rattus norvegicus, UniProt P62813).
A further test concerns the target T1, Cholecystokinin (Rattus norvegicus, UniProt P01355).
T1 sequence (P01355 whole entry): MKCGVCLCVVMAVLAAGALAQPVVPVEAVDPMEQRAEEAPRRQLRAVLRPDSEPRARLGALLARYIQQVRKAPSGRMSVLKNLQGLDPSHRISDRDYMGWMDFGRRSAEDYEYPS

The target in test [2] is GABA(A) receptor-associated protein (Sus scrofa, UniProt D7RA28).
Chain of GABA(A) receptor-associated protein (D7RA28 whole entry): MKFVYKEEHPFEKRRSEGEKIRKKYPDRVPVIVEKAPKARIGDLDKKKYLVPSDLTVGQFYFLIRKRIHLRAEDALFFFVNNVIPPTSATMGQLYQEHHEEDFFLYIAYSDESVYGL

Chain of Gamma-aminobutyric acid receptor subunit alpha-1 (P62813 whole entry): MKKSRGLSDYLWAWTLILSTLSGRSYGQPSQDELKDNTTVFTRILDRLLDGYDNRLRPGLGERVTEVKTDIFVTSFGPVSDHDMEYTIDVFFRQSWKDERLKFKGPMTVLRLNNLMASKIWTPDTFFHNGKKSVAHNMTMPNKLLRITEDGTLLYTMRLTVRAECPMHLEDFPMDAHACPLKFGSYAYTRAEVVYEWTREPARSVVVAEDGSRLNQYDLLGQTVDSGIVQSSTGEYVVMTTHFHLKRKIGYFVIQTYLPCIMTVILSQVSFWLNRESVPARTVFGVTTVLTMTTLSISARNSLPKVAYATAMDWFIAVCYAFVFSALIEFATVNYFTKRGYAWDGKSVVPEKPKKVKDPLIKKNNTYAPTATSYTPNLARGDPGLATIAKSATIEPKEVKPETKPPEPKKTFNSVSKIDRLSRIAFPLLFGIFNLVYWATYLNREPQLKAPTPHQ

What is called Ki is a measure of affinity in units of concentration, obtained from inhibition or displacement. High values mean weaker binding, low ones tighter binding. For `O=C(NC1N=C(c2ccccc2)c2ccccc2NC1=O)c1cc2ccccc2[nH]1` (centres undefined), the Ki was over 10000 nM in test [1] and 4.7 nM at Cholecystokinin.
As for `CN1C(=O)[C@@H](Cc2c[nH]c3ccccc23)N=C(c2ccccc2F)c2ccccc21` [CCK antagonist synthetic 11], the Ki in test [2] was over 10000 nM; on Cholecystokinin, 270 nM.
The like results for `O=C1Nc2ccccc2C(c2ccccc2F)=N[C@@H]1Cc1c[nH]c2ccccc12` [CCK antagonist synthetic 9] were, in that order, over 10000 nM and 500 nM.
As to `O=C1Nc2ccccc2C(c2ccccc2)=N[C@@H]1Cc1c[nH]c2ccccc12` [CCK antagonist synthetic 8], the Ki in test [1] is over 10000 nM; at Cholecystokinin, 1200 nM.
At Cholecystokinin, `CN1C(=O)[C@@H](Cc2c[nH]c3ccccc23)N=C(c2ccccc2)c2cc(Cl)ccc21` [CCK antagonist synthetic 7] gave a Ki of 1400 nM.
Take `O=C1Nc2ccc(Cl)cc2C(c2ccccc2)=N[C@H]1Cc1c[nH]c2ccccc12` [CCK antagonist synthetic 6]: the Ki is 5600 nM in test [1] and over 10000 nM on Cholecystokinin.
Turning to `Cc1nnc2n1-c1ccccc1C(c1ccccc1F)=NC2Cc1c[nH]c2ccccc12` (centres undefined), the values for the Ki (in test [2]; at Cholecystokinin) were 800 nM and 300 nM, respectively.
The molecule `O=C(NC(Cc1c[nH]c2ccccc12)C(=O)O)c1ccc(Cl)cc1` (centres undefined) displayed a Ki at Cholecystokinin of over 10000 nM.
As to `CN1C(=O)[C@H](NC(=O)c2cc3ccccc3[nH]2)N=C(c2ccccc2)c2ccccc21`, in test [2], the Ki was over 10000 nM.
The same measure, in the same setting: under `CN1C(=O)[C@@H](NC(=O)c2cc3ccccc3[nH]2)N=C(c2ccccc2)c2ccccc21` [1H-Indole-2-carboxylic acid (1-methyl-2-oxo-5-phenyl-2,3-dihydro-1H-benzo[e][1,4]diazepin-3-yl)-amide: 0.1C4H10O. 0.15CH2Cl2] stands over 10000 nM.
Turning to `CC(=O)NC1N=C(c2ccccc2F)c2ccccc2NC1=O` (centres undefined) [CCK antagonist synthetic 16], the Ki on Cholecystokinin is over 10000 nM.
In the case of `O=C(O)CN1C(=O)[C@@H](Cc2c[nH]c3ccccc23)N=C(c2ccccc2F)c2ccccc21` [CCK antagonist synthetic 13], the results for the Ki (in test [2]; on Cholecystokinin) were over 10000 nM and 300 nM, respectively.
The like results for `CN1C(=O)C(NC(=O)c2cc3ccccc3[nH]2)N=C(c2ccccc2)c2cc(F)ccc21` (centres undefined) [CCK antagonist synthetic 22] were, in that order, 7800 nM and 1.4 nM.
On to `O=C(NC1N=C(c2ccccc2F)c2ccccc2NC1=O)c1cc2ccccc2[nH]1` (centres undefined), for which the Ki in test [2] was determined as 3000 nM; at Cholecystokinin, 2.1 nM.
For `O=C(O)CN1C(=O)C(NC(=O)c2cc3ccccc3[nH]2)N=C(c2ccccc2)c2ccccc21` (centres undefined) [CCK antagonist synthetic 20], in that order: over 10000 nM and 1.4 nM.
In the case of `O=C1Nc2ccc(Cl)cc2C(c2ccccc2)=N[C@@H]1Cc1c[nH]c2ccccc12`, the Ki in test [1] was over 10000 nM; at Cholecystokinin it was 3400 nM.
The molecule `Cc1ccc2c(C(=O)NC3N=C(c4ccccc4F)c4ccccc4NC3=O)c[nH]c2c1` (centres undefined) [CCK antagonist synthetic 15] registered a Ki at Cholecystokinin of 1100 nM. This counts as single-digit micromolar.
At Cholecystokinin, `CSCC[C@H](NC(=O)[C@H](Cc1ccc(OS(=O)(=O)O)cc1)NC(=O)OCc1ccccc1)C(=O)NCC(=O)N[C@@H](Cc1c[nH]c2ccccc12)C(=O)N[C@@H](CCSC)C(=O)N[C@@H](CC(=O)O)C(N)=O` [Benzyloxycarbonyl CCK(27-32)NH2] (Cbz-[sY]MGWMD-NH2) registered a Ki of 3500 nM.
